Columns and labels:
[1] = Aqueous solubility of compound in water at pH 7.4 incubated at 20 degC by HPLC-UV analysis; type: physicochemical
MCF7 = test: Antiproliferative activity against human MCF7 cells measured after 48 hrs by SRB assay; type: functional, cell-based; conditions: Homo sapiens, MCF7, 48 h
HepG2 = test: Antiproliferative activity against human HepG2 cells measured after 48 hrs by SRB assay; type: functional, cell-based; conditions: Homo sapiens, HepG2, 48 h
Bel-7402 = test: Antiproliferative activity against human Bel-7402 cells measured after 48 hrs by SRB assay; type: functional, cell-based; conditions: Homo sapiens, Bel-7402, 48 h

solubility [1] [mg/mL] | IC50 (MCF7) [µM] | IC50 (HepG2) [µM] | IC50 (Bel-7402) [µM] | Structure (SMILES)
18.6 | – | – | – | COc1ccc(N(C(=O)CCN2CCCCC2)S(=O)(=O)c2ccc3c(c2)c2ccccc2n3C)c(OC)n1.Cl
– | 4.61 | 1.36 | 4.1 | COc1ccc(N(CCN2CCSCC2)S(=O)(=O)c2ccc3c(c2)c2ccccc2n3C)c(OC)n1
– | 7.15 | 2.73 | 10.8 | COc1ccc(N(CCCN(C)C)S(=O)(=O)c2ccc3c(c2)c2ccccc2n3C)c(OC)n1
– | 21 | 5.6 | 11.6 | COc1ccc(N(CCCN2CCN(C)CC2)S(=O)(=O)c2ccc3c(c2)c2ccccc2n3C)c(OC)n1
– | 14.6 | 2.84 | 4.23 | COc1ccc(N(CCN2CCC3(CCN(C)CC3)C2)S(=O)(=O)c2ccc3c(c2)c2ccccc2n3C)c(OC)n1
– | 21.3 | 3.59 | 6.21 | COc1ccc(N(CCCN2CCC3(CCN(C)CC3)C2)S(=O)(=O)c2ccc3c(c2)c2ccccc2n3C)c(OC)n1
– | 4.28 | 1.97 | 3.56 | COc1ccc(N(CC(N)=O)S(=O)(=O)c2ccc3c(c2)c2ccccc2n3C)c(OC)n1
0.47 | – | – | – | COc1ccc(N(CCOC(N)=O)S(=O)(=O)c2ccc3c(c2)c2ccccc2n3C)c(OC)n1.Cl
0.24 | – | – | – | COc1ccc(N(CCN)S(=O)(=O)c2ccc3c(c2)c2ccccc2n3C)c(OC)n1.Cl
– | 5.98 | 4.3 | 4.92 | COc1ccc(N(CCOC(=O)CN2CCN(C)CC2)S(=O)(=O)c2ccc3c(c2)c2ccccc2n3C)c(OC)n1
0.0015 | – | – | – | COc1ccc(NS(=O)(=O)c2ccc3c(c2)c2ccc(O)cc2n3C)c(OC)n1.Cl
– | 0.17 | 0.07 | 0.2 | COc1ccc(N(C(=O)CCN2CCN(C)CC2)S(=O)(=O)c2ccc3c(c2)c2ccccc2n3C)c(OC)n1
> 30 | – | – | – | COc1ccc(N(CCCN2CCC(N3CCCC3)CC2)S(=O)(=O)c2ccc3c(c2)c2ccccc2n3C)c(OC)n1.Cl
– | 4.53 | 1.39 | 4.64 | COc1ccc(N(CCCn2ccnc2)S(=O)(=O)c2ccc3c(c2)c2ccccc2n3C)c(OC)n1
> 30 | – | – | – | COc1ccc(N(CCN2CCC3(CCN(C)CC3)C2)S(=O)(=O)c2ccc3c(c2)c2ccccc2n3C)c(OC)n1.Cl
17.6 | – | – | – | COc1ccc(N(C(=O)CCN2CCN(C)CC2)S(=O)(=O)c2ccc3c(c2)c2ccccc2n3C)c(OC)n1.Cl
0.15 | – | – | – | COc1ccc(N(CCO)S(=O)(=O)c2ccc3c(c2)c2ccccc2n3C)c(OC)n1.Cl
– | 4.6 | 1.25 | 2.59 | COc1ccc(N(CCn2ccnc2)S(=O)(=O)c2ccc3c(c2)c2ccccc2n3C)c(OC)n1
0.6 | – | – | – | COc1ccc(N(CCN2CCCC2)S(=O)(=O)c2ccc3c(c2)c2ccccc2n3C)c(OC)n1.Cl
21.5 | – | – | – | COc1ccc(N(CCn2ccnc2)S(=O)(=O)c2ccc3c(c2)c2ccccc2n3C)c(OC)n1.Cl
– | 1.43 | 4.04 | 4.13 | COc1ccc(N(CCO)S(=O)(=O)c2ccc3c(c2)c2ccccc2n3C)c(OC)n1

Structure (SMILES) | solubility [1] [mg/mL] | IC50 (MCF7) [µM] | IC50 (HepG2) [µM] | IC50 (Bel-7402) [µM]
COc1ccc(/C=C\c2cc(OC)c(OC)c(OC)c2)cc1O [COMBRETASTATIN A4] | – | 0.003 | 0.002 | 0.084
COc1ccc(N(CCN2CCC(N3CCCC3)CC2)S(=O)(=O)c2ccc3c(c2)c2ccccc2n3C)c(OC)n1.Cl | > 30 | – | – | –
COc1ccc(N(CCN(C)C)S(=O)(=O)c2ccc3c(c2)c2ccccc2n3C)c(OC)n1.Cl | 29.1 | – | – | –
COc1ccc(N(CCOP(=O)([O-])[O-])S(=O)(=O)c2ccc3c(c2)c2ccccc2n3C)c(OC)n1.Cl.[Na+].[Na+] | 22.4 | – | – | –
COc1ccc(NS(=O)(=O)c2ccc3c(c2)c2ccc(OP(=O)([O-])[O-])cc2n3C)c(OC)n1.Cl.[Na+].[Na+] | > 30 | – | – | –
